In the supplement of paper PMC10307832:

Tests used:
Experiment in all cases: relative viability (nuclei count vs DMSO), 5 days (fraction); higher = more cells survive
Ruxolitinib + Decitabine = compound: N#CC[C@H](C1CCCC1)n1cc(-c2ncnc3[nH]ccc23)cn1 [Ruxolitinib] + Nc1ncn([C@H]2C[C@H](O)[C@@H](CO)O2)c(=O)n1 [Decitabine] (partner 2 µM)
Summary of the method: (§1)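 Relative viability is defined as nuclei in treated wells over nuclei in vehicle wells. Duplicate plates were run and medians reported. Lung cancer cell lines in 1536-well plates were dosed by pin tool one day after seeding, with one drug or with a fixed anchor-drug dose plus five library-drug doses (not always all listed) in √10 steps, and nuclei were counted after 5 days.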

Vismodegib + Pemetrexed = compound: CS(=O)(=O)c1ccc(C(=O)Nc2ccc(Cl)c(-c3ccccn3)c2)c(Cl)c1 [Vismodegib] + Nc1nc2[nH]cc(CCc3ccc(C(=O)N[C@@H](CCC(=O)O)C(=O)O)cc3)c2c(=O)[nH]1 [Pemetrexed] (partner 0.2 µM)
Summary of the method: as §1

VE-821 + Foretinib = compound: CS(=O)(=O)c1ccc(-c2cnc(N)c(C(=O)Nc3ccccc3)n2)cc1 [VE-821] + COc1cc2c(Oc3ccc(NC(=O)C4(C(=O)Nc5ccc(F)cc5)CC4)cc3F)ccnc2cc1OCCCN1CCOCC1 [Foretinib] (partner 0.25 µM)
Summary of the method: as §1

Ruxolitinib + Tozasertib = compound: N#CC[C@H](C1CCCC1)n1cc(-c2ncnc3[nH]ccc23)cn1 [Ruxolitinib] + Cc1cc(Nc2cc(N3CCN(C)CC3)nc(Sc3ccc(NC(=O)C4CC4)cc3)n2)n[nH]1 [Tozasertib] (partner 0.1 µM)
Summary of the method: as §1

| Cell Line | relative viability (Ruxolitinib + Decitabine; first compound 0.08 µM) | relative viability (Ruxolitinib + Decitabine; first compound 0.253 µM) | relative viability (Ruxolitinib + Decitabine; first compound 0.8 µM) | relative viability (Ruxolitinib + Decitabine; first compound 2.53 µM) | relative viability (Ruxolitinib + Decitabine; first compound 8 µM) | relative viability (Vismodegib + Pemetrexed; first compound 0.08 µM) | relative viability (Vismodegib + Pemetrexed; first compound 0.253 µM) | relative viability (Vismodegib + Pemetrexed; first compound 0.8 µM) | relative viability (Vismodegib + Pemetrexed; first compound 2.53 µM) | relative viability (Vismodegib + Pemetrexed; first compound 8 µM) | relative viability (VE-821 + Foretinib; first compound 0.08 µM) | relative viability (VE-821 + Foretinib; first compound 0.253 µM) | relative viability (VE-821 + Foretinib; first compound 0.8 µM) | relative viability (VE-821 + Foretinib; first compound 2.53 µM) | relative viability (VE-821 + Foretinib; first compound 8 µM) | relative viability (Ruxolitinib + Tozasertib; first compound 0.08 µM) | relative viability (Ruxolitinib + Tozasertib; first compound 0.253 µM) | relative viability (Ruxolitinib + Tozasertib; first compound 0.8 µM) | relative viability (Ruxolitinib + Tozasertib; first compound 2.53 µM) | relative viability (Ruxolitinib + Tozasertib; first compound 8 µM) |
| --- | --- | --- | --- | --- | --- | --- | --- | --- | --- | --- | --- | --- | --- | --- | --- | --- | --- | --- | --- | --- |
| LK-2 | 0.228 | 0.237 | 0.35 | 0.308 | 0.273 | 0.248 | 0.255 | 0.307 | 0.238 | 0.266 | 1.5 | 1.46 | 1.05 | 1.37 | 1.14 | 0.162 | 0.199 | 0.168 | 0.166 | 0.171 |
| NCI-H1650 | 0.321 | 0.338 | 0.438 | 0.418 | 0.442 | 0.332 | 0.333 | 0.334 | 0.372 | 0.354 | 1.15 | 1.11 | 0.718 | 1.39 | 0.692 |  | 0.503 | 0.386 | 0.455 | 0.357 |
| NCI-H2023 | 0.214 | 0.264 | 0.267 | 0.218 | 0.271 | 0.256 | 0.216 | 0.219 | 0.235 | 0.248 | 0.998 | 0.785 | 0.511 | 0.383 | 0.343 | 0.305 | 0.352 | 0.506 | 0.356 | 0.302 |
| SK-LU-1 | 0.547 | 0.693 | 0.755 | 0.522 | 0.622 | 0.971 | 1.03 | 0.982 | 0.909 | 0.845 | 0.871 | 0.775 | 0.738 | 0.59 | 0.254 | 0.363 | 0.328 | 0.412 | 0.372 | 0.338 |
| NCI-H2347 | 0.614 | 0.602 | 0.65 | 0.563 | 0.62 | 0.423 | 0.423 | 0.459 | 0.435 | 0.458 | 0.542 | 0.995 | 0.633 | 1.03 | 0.946 | 0.612 | 0.561 | 0.554 | 0.725 | 0.701 |
| NCI-H727 | 0.578 | 0.901 | 0.936 | 0.841 | 0.842 |  |  |  |  |  | 1.27 | 0.982 | 0.823 | 0.789 | 0.405 | 0.663 | 0.818 | 0.674 | 0.567 | 0.589 |
| COR-L23 | 0.493 | 0.429 | 0.521 | 0.367 | 0.322 | 0.195 | 0.19 | 0.184 | 0.195 | 0.207 | 1.09 | 0.974 | 0.915 | 1.27 | 0.917 | 0.204 | 0.217 | 0.204 | 0.192 | 0.146 |
| NCI-H2126 | 0.559 | 0.594 | 0.584 | 0.631 | 0.635 | 0.717 | 0.664 | 0.661 | 0.623 | 0.681 | 1.38 | 1.1 | 1.21 | 1.1 | 0.764 | 0.864 | 0.848 | 1.1 | 0.975 | 0.838 |
| NCI-H1703 |  |  |  |  |  |  |  |  |  |  | 0.33 | 0.3 | 0.329 | 0.364 | 0.404 |  |  |  |  |  |
| H3255 |  | 0.568 | 0.781 | 0.535 | 0.609 | 0.56 | 0.57 | 0.532 | 0.485 | 0.542 | 0.883 | 0.843 | 0.913 | 0.91 | 0.857 | 0.612 | 0.568 | 0.841 | 0.56 | 0.682 |
| NCI-H1915 | 0.262 | 0.278 | 0.275 | 0.237 | 0.233 | 0.464 | 0.434 | 0.515 | 0.444 | 0.49 | 1.15 | 1.08 | 1.03 | 1.09 | 0.912 | 0.462 | 0.434 | 0.464 | 0.398 | 0.419 |
| ABC-1 |  | 1.03 | 1.38 | 1.21 | 1.21 |  |  |  |  |  | 1.41 | 0.877 | 0.859 | 1.01 | 0.756 |  | 0.222 | 0.155 | 0.202 | 0.201 |
| NCI-H1648 | 0.472 | 0.558 | 0.588 | 0.592 | 0.861 | 0.679 | 0.832 | 0.731 | 0.782 | 0.702 |  |  |  |  |  |  | 0.414 | 0.747 | 0.878 | 1.14 |
| A549 | 0.215 | 0.254 | 0.322 | 0.197 | 0.28 |  |  |  |  |  | 0.996 | 0.93 | 0.858 | 0.861 | 0.713 |  |  |  |  |  |
| NCI-H1563 |  |  |  |  |  | 0.458 | 0.806 | 0.767 | 0.762 | 0.839 | 0.937 | 0.903 | 0.769 | 0.876 | 0.83 |  |  |  |  |  |
| NCI-H1623 |  |  |  |  |  |  |  |  |  |  | 0.936 | 0.816 | 0.741 | 0.867 | 0.73 | 0.488 | 0.485 | 0.49 | 0.49 | 0.479 |
| CAL-12T |  |  |  |  |  | 1.12 | 1.13 | 1.13 | 1.14 | 1.13 | 1.27 | 1.09 | 1.01 | 0.976 | 0.92 | 0.348 | 0.412 | 0.344 | 0.313 | 0.312 |
| NCI-H2228 |  |  |  |  |  | 0.342 | 0.401 | 0.291 | 0.316 | 0.333 | 0.945 | 0.849 | 0.946 | 0.749 | 0.567 | 0.32 | 0.33 | 0.257 | 0.314 | 0.208 |
| IA-LM |  |  |  |  |  |  |  |  |  |  | 1.2 | 0.957 | 1.15 | 1.04 | 1.03 |  |  |  |  |  |
| NCI-H522 | 0.694 | 0.695 | 0.669 | 0.701 | 0.654 | 1.18 | 0.731 | 1.01 | 0.836 | 0.988 |  |  |  |  |  | 0.576 | 0.567 | 0.602 | 0.533 | 0.524 |
| EBC-1 |  |  |  |  |  |  |  |  |  |  | 0.0973 | 0.103 | 0.0999 | 0.104 | 0.102 |  |  |  |  |  |
| Calu-6 |  |  |  |  |  |  |  |  |  |  | 0.94 | 0.932 | 0.821 | 0.767 | 0.753 |  |  |  |  |  |
| NCI-H1792 | 0.516 | 0.544 | 0.602 | 0.425 | 0.476 | 0.927 | 0.881 | 0.673 | 0.773 | 0.698 |  |  |  |  |  |  |  |  |  |  |
